# Experimental data from PMC11802874, “The hypolipidemic effect of MI-883, the combined CAR agonist/ PXR antagonist, in diet-induced hypercholesterolemia model” (Nature Communications, 2025).
# Where “and” joins values, the source holds several entries; their conditions need not be identical. Identical values can stand only once.
# Key:
# PXR/NCOA1 = molecular target: T1, PXR/NCOA1 (Homo sapiens, UniProt O75469); assay: Mammalian two-hybrid PXR/coactivator NCOA1 recruitment, HepG2; type: cell-based; set-up: key: firefly/Metridia luciferase activity ratio (normalized)
# T1 construct: PXR-LBD (residues 108–434); expressed in transfected cells; host or cells: HepG2
# T1 sequence (O75469 108-434): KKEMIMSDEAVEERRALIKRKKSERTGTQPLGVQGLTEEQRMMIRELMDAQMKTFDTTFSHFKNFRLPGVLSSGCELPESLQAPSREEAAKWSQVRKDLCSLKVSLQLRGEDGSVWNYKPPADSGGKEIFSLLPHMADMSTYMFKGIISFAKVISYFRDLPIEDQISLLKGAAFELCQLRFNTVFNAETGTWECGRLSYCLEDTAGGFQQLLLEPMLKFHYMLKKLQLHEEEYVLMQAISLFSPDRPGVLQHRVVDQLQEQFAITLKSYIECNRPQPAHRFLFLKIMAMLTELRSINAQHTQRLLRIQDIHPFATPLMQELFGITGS
# Method: The GAL4-dependent pGL4-G5, harboring a pentamer of GAL4 binding sites in front of the E1b promoter was described before.
# Transient batch transfection of HepG2 cells was done as described above. […] All transfections included 0.01 µg pMetLuc2control per well for normalization of firefly luciferase reporter activities. After overnight incubation with the transfection mixtures, cells were treated with chemicals in a volume of 100 µl of cell culture medium. […] Firefly luciferase activity was measured in 10 µl of cell lysates, and Metridia luciferase activity was analyzed in 10 µl of medium supernatant, both as described before. Results were normalized by dividing firefly luciferase activity by Metridia luciferase activity measured from the same well. Measurements of samples were repeated several times (n ≥ 3).
# [1] = test system: humanized PXR-CAR-CYP3A4/3A7 mice; assay: Hepatic induction study in humanized PXR-CAR-CYP3A4/3A7 mice (i.p.); type: in vivo, mouse
# Source text: In the induction experiments, […] was sampled from the gallbladder.
# rats = assay: Repeated dose 28-day oral toxicity study in rats (OECD 407, non-GLP); type: in vivo; settings: up to 10 mg/kg
# Method: (§1) A repeated dose 28-day oral toxicity study in Rats (Non–GLP Study) was carried out according to OECD Guideline for Testing of Chemicals No. 407 and relevant Test Facility SOPs at the Institute of Physiology, Academy of Sciences, Czech Republic as a service. The report is available after request. […] No clinical changes were observed during the administration period or the recovery period in the two selected groups. […]
# [2] = as above; type: in vivo; settings: rat, in vivo, 10 mg/kg; 28 days per os, rats
# Method: as §1
# LXRβ = LXRβ (Homo sapiens, UniProt P55055); assay: Luciferase reporter gene assay LXRβ, HepG2
# Source text: Gal4-LBD constructs of tested nuclear receptors have been used together with pGL4.31[luc2P/GAL4UAS/Hygro] luciferase reporter construct and pRL-TK Renilla expression vector (both from Promega, Hercules, USA) in HepG2 cells transfected with Lipofectamine 2000 or 3000 reagents. For GRα and FXR receptors, full-length expression vectors have been used with pGRE-luc or pFXRE-luc luciferase constructs. For the aryl hydrocarbon receptor (AhR), p1A1-luc construct was used with only pRL-TK vector for transfection normalization. A dual reporter assay (Promega, Hercules, USA) was used to analyze both firefly and Renilla luciferase activities.
# Gal4-LBD constructs of tested nuclear receptors have been used together with pGL5-luc luciferase reporter construct and pRL-TK Renilla expression vector in HepG2 cells transfected with Lipofectamine 2000 or 3000 reagents. For GRα and FXR receptors, full-length expression vectors have been used with pGRE-luc or pFXRE-luc luciferase constructs. For the aryl hydrocarbon receptor (AhR), p1A1-luc construct was used with only pRL-TK vector for transfection normalization. […] Bars represent means±S.D. (n=3).
# [3] = Chemical stability (shelf, DMSO stock) and solubility in solvents; type: physicochemical
# Source text: 1. Biological half-life was investigated. But is MI-883 stable on the shelf? […]
# Our medicinal chemistry team analyzed the MI-883 sample that had been stored on the lab bench at […]
# compared to the freshly prepared sample (see Figure R1).
# In addition, the compound is stable for at least two years in dimethyl sulfoxide (DMSO) as we confirm using published protocols 1,2(see data in Table R1).
# Table 1: LC/MS data for MI-883 stability in DMSO solution
# Study protocol: Stability of MI-883 stock solution in DMSO after two years at -20°C A 10 mM solution of MI-883 was prepared in DMSO and divided into multiple aliquots in 2 mL cryovials.
# The samples were stored at -20°C for two years in a standard laboratory freezer. Mass spectrometric analysis was conducted using LC/MS (Sciex QTRAP 7500). Stability was determined based on three independently prepared 1 µM solutions from stored stock.
# DMSO stock solution at -20°C over two years. However, for critical pharmaceutical use, additional studies at different temperatures and under varied conditions (e.g., light exposure, humidity) may be necessary to fully assess long-term stability. […]
# We used several computational prediction tools to determine water […]
# μg/mL (0.9 μM) and 0.2 μg/mL (0.4 μM). Using QikProp tool (Schrödinger software package), the […]
# According to the ADMET Predictor software package […]
# predictions align with our observations and confirm the poor water solubility of MI-883, although we […]
# The compound is well soluble in methanol and can dissolve in ethanol up to a concentration of 30 mM. […]
# [4] = single agents i.p.: Rif 3×5 mg/kg, CITCO 10 mg/kg two doses, MI-883 10 mg/kg 3 days
# LXRβ, sequence (P55055 222-460 limits assumed): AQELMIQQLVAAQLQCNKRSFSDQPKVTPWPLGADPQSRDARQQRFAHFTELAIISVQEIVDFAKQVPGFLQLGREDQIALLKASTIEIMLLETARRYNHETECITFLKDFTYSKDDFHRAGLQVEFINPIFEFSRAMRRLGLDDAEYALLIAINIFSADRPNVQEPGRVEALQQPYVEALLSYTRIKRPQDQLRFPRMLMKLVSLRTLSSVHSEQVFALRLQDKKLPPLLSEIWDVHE
structure (smiles),measurement,setting,value
"NC(=O)c1cc(Cn2cc(-c3c(-c4ccc(Cl)cc4)nc4cc(F)ccn34)nn2)ccc1Cl [MI-883, 2-chloro-5-((4-(2-(4-chlorophenyl)-7-fluoroimidazo[1,2-a]pyridin-3-yl)-1H-1,2,3-triazol-1-yl)methyl)benzamide]","PXR/NCOA1 two-hybrid activity, replicates",PXR/NCOA1; MI-883 5 μM,0.25 and 0.27 and 0.49 and 0.53 and 0.45
same,"PXR/NCOA1 two-hybrid activity, replicates",PXR/NCOA1; RIF + MI-883 5μM,3.5 and 5.72 and 7.6 and 8.87 and 7.06
same,"PXR/NCOA1 two-hybrid activity, replicates",PXR/NCOA1; RIF + MI-883 10μM,2.55 and 2.34 and 3.32 and 3.46
same,"PXR/NCOA1 two-hybrid activity, replicates","PXR/NCOA1; single agent: RIF (10 µM), MI-883 10μM, control ~1",0.21 and 0.23 and 0.57 and 0.43 and 0.38
same,fold mRNA induction CYP3A4 in livers of humanized PXR-CAR-CYP3A mice,"[1]; MI-883 10 mg/kg i.p. 3 days, not significant",1.9 fold
same,"hepatic CYP3A4 mRNA, hPXR/hCAR/CYP3A4/7 mice (Fig. 3e), individual animals",[1]; Rif + MI-883 combination i.p.,15.1375 and 21.1204 and 7.333 and 13.3527
same,"hepatic Cyp2b10 mRNA, hPXR/hCAR/CYP3A4/7 mice (Fig. 3e), individual animals",[1]; Rif + MI-883 combination i.p.,37.4609 and 22.8189 and 29.2533 and 22.0407
same,"hepatic CYP3A4 mRNA, hPXR/hCAR/CYP3A4/7 mice (Fig. 3e), individual animals",[1]; [4],2.527 and 2.124 and 1.135
same,"hepatic Cyp2b10 mRNA, hPXR/hCAR/CYP3A4/7 mice (Fig. 3e), individual animals",[1]; [4],5.955 and 3.722 and 12.2143
same,"Cyp2b10 mRNA in the liver, preliminary studies",[1]; single dose of 5 mg/kg in oral gavage,significant induction
same,toxicity in 28-day oral study in rats,rats,no toxicity
same,toxicity in 28-day oral study in rats,rats; listed as MI833,No clinical signs of toxicity
same,NOAEL at 28 days,[2],> 10 mg/kg
same,"NRs assays: LXRbeta (relative to ctrl, replicates)",LXRβ,0.51 and 0.81 and 0.55
same,solubility in methanol,[3],well soluble
same,LC/MS concentration of 1 µM solution from DMSO stock,[3]; 2 year at -20°C in DMSO,1.007 µM
same,decomposition on the lab bench at room temperature,"[3]; 6 months, HPLC/MS",no significant decomposition
same,water solubility,[3]; not experimentally determined,low water solubility
same,LC/MS concentration of 1 µM solution from DMSO stock,[3]; time 0,1.012 µM
